In patent US9802927B2, “Oxadiazine compounds and methods of use thereof” (Denali Therapeutics, Inc., priority 2015, dated 2017):

test system: Aβ42; assay: In vitro cell screening assay in H4 cells expressing human APP751: Aβ42 by sandwich ELISA; format: cell-based; details: Homo sapiens, compounds 0.003-10 μM, incubated overnight (16-18 h), sandwich ELISA of supernatant
Outline: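 H4 neuroglioma cells stably expressing wild-type human APP751, switched to Pro293 medium and treated with compounds (0.003-10 μM, 0.33% DMSO) for 16-18 h at 37 °C. Supernatant Aβ42 quantified by sandwich ELISA (C-terminal capture, 4G8-HRP detection, A450); EC50 by sigmoidal fit normalized to DMSO and DAPT controls.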

EC50 [nM] | SMILES
> 3000 | COc1nc(C2=NOCC(c3ccc(S(C)(=O)=O)cc3)N2)ccc1-n1cnc(C)c1 (single isomer, unassigned; (-)) [Example 217A, (−)-3-(6-methoxy-5-(4-methyl-1H-imidazol-1-yl)pyridin-2-yl)-5-(4-(methylsulfonyl)phenyl)-5,6-dihydro-4H-1,2,4-oxadiazine]

same assay, conditions: compounds 0.003-10 μM, incubated overnight (16-18 h), sandwich ELISA of supernatant

EC50 [nM] | SMILES
229 | COc1nc(C2=NOCC(c3cn(C)c4c(F)cccc34)N2)ccc1-n1cnc(C)c1 (single isomer, unassigned; (-)) [Example 231A, (−)-5-(7-fluoro-1-methyl-1H-indol-3-yl)-3-(6-methoxy-5-(4-methyl-1H-imidazol-1-yl)pyridin-2-yl)-5,6-dihydro-4H-1,2,4-oxadiazine]
278 | COc1nc(C2=NOCC(c3nn(C)c4ccc(Cl)cc34)N2)ccc1-n1cnc(C)c1 (single isomer, unassigned; (-)) [Example 232A, (−)-5-(5-chloro-1-methyl-1H-indazol-3-yl)-3-(6-methoxy-5-(4-methyl-1H-imidazol-1-yl)pyridin-2-yl)-5,6-dihydro-4H-1,2,4-oxadiazine]
94.5 | COc1nc(C2=NOCC(c3cn(C)c4ccc(C(F)(F)F)cc34)N2)ccc1-n1cnc(C)c1 (single isomer, unassigned; (-)) [Example 233A, (−)-3-(6-methoxy-5-(4-methyl-1H-imidazol-1-yl)pyridin-2-yl)-5-(1-methyl-5-(trifluoromethyl)-1H-indol-3-yl)-5,6-dihydro-4H-1,2,4-oxadiazine]
425 | COc1nc(C2=NOCC(c3cc4cc(C5CC5)ccc4o3)N2)ccc1-n1cnc(C)c1 (single isomer, unassigned; (-)) [Example 234A, (−)-5-(5-cyclopropylbenzofuran-2-yl)-3-(6-methoxy-5-(4-methyl-1H-imidazol-1-yl)pyridin-2-yl)-5,6-dihydro-4H-1,2,4-oxadiazine]
763 | COc1nc(C2=NOCC(c3ccc(C(C)(C)C)cc3)N2)ccc1-n1cnc(C)c1 (single isomer, unassigned; (-)) [Example 235A, (−)-5-(4-(tert-butyl)phenyl)-3-(6-methoxy-5-(4-methyl-1H-imidazol-1-yl)pyridin-2-yl)-5,6-dihydro-4H-1,2,4-oxadiazine]
397 | COc1nc(C2=NOCC(c3cc4ccc(C5CC5)cc4o3)N2)ccc1-n1cnc(C)c1 (single isomer, unassigned; (-)) [Example 236A, (−)-5-(6-cyclopropylbenzofuran-2-yl)-3-(6-methoxy-5-(4-methyl-1H-imidazol-1-yl)pyridin-2-yl)-5,6-dihydro-4H-1,2,4-oxadiazine]
47.1 | COc1nc(C2=NOCC(c3cn(C)c4ccc(Cl)c(F)c34)N2)ccc1-n1cnc(C)c1 (single isomer, unassigned; (-)) [Example 237B, (−)-5-(5-chloro-4-fluoro-1-methyl-1H-indol-3-yl)-3-(6-methoxy-5-(4-methyl-1H-imidazol-1-yl)pyridin-2-yl)-5,6-dihydro-4H-1,2,4-oxadiazine]
> 3000 | COc1nc(C2=NOCC(c3ccc4nc(C)sc4c3)N2)ccc1-n1cnc(C)c1 (single isomer, unassigned; (-)) [Example 238A, (−)-3-(6-methoxy-5-(4-methyl-1H-imidazol-1-yl)pyridin-2-yl)-5-(2-methylbenzo[d]thiazol-6-yl)-5,6-dihydro-4H-1,2,4-oxadiazine]
920 | COc1nc(C2=NOCC(c3ccc(Cl)c(C4CC4)c3)N2)ccc1-n1cnc(C)c1 (single isomer, unassigned; (-)) [Example 239A, (−)-5-(4-chloro-3-cyclopropylphenyl)-3-(6-methoxy-5-(4-methyl-1H-imidazol-1-yl)pyridin-2-yl)-5,6-dihydro-4H-1,2,4-oxadiazine]
> 3000 | COc1nc(C2=NOCC(c3ccc4scnc4c3)N2)ccc1-n1cnc(C)c1 (single isomer, unassigned; (-)) [Example 240A, (−)-5-(benzo[d]thiazol-5-yl)-3-(6-methoxy-5-(4-methyl-1H-imidazol-1-yl)pyridin-2-yl)-5,6-dihydro-4H-1,2,4-oxadiazine]
386 | COc1nc(C2=NOCC(c3nn(C)c4ccc(C(F)(F)F)cc34)N2)ccc1-n1cnc(C)c1 (single isomer, unassigned; (-)) [Example 241A, (−)-3-(6-methoxy-5-(4-methyl-1H-imidazol-1-yl)pyridin-2-yl)-5-(1-methyl-5-(trifluoromethyl)-1H-indazol-3-yl)-5,6-dihydro-4H-1,2,4-oxadiazine]

Continued, compound first:

SMILES | EC50 [nM]
COc1nc(C2=NOCC(c3ccc4sc(C)nc4c3)N2)ccc1-n1cnc(C)c1 (single isomer, unassigned; (-)) [Example 215A, (−)-3-(6-methoxy-5-(4-methyl-1H-imidazol-1-yl)pyridin-2-yl)-5-(2-methylbenzo[d]thiazol-5-yl)-5,6-dihydro-4H-1,2,4-oxadiazine] | 2210
COc1nc(C2=NOCC(c3cn(C)c4cc(F)c(Cl)cc34)N2)ccc1-n1cnc(C)c1 (single isomer, unassigned; (-)) [Example 216A, (−)-5-(5-chloro-6-fluoro-1-methyl-1H-indol-3-yl)-3-(6-methoxy-5-(4-methyl-1H-imidazol-1-yl)pyridin-2-yl)-5,6-dihydro-4H-1,2,4-oxadiazine] | 89.5
COc1nc(C2=NOCC(c3ccc(C)c(Cl)c3)N2)ccc1-n1cnc(C)c1 (single isomer, unassigned; (-)) [Example 218A, (−)-5-(3-chloro-4-methylphenyl)-3-(6-methoxy-5-(4-methyl-1H-imidazol-1-yl)pyridin-2-yl)-5,6-dihydro-4H-1,2,4-oxadiazine] | 1010
COc1nc(C2=NOCC(c3cn(C(C)C)c4cc(F)ccc34)N2)ccc1-n1cnc(C)c1 (single isomer, unassigned; (-)) [Example 219B, (−)-5-(6-fluoro-1-isopropyl-1H-indol-3-yl)-3-(6-methoxy-5-(4-methyl-1H-imidazol-1-yl)pyridin-2-yl)-5,6-dihydro-4H-1,2,4-oxadiazine] | 194
COc1nc(C2=NOCC(c3cn(C)c4ccc(F)c(F)c34)N2)ccc1-n1cnc(C)c1 (single isomer, unassigned; (-)) [Example 220A, (−)-5-(4,5-difluoro-1-methyl-1H-indol-3-yl)-3-(6-methoxy-5-(4-methyl-1H-imidazol-1-yl)pyridin-2-yl)-5,6-dihydro-4H-1,2,4-oxadiazine] | 102
COc1nc(C2=NOCC(c3cn(C)c4ccc(C5CC5)cc34)N2)ccc1-n1cnc(C)c1 (single isomer, unassigned; (-)) [Example 221A, (−)-5-(5-cyclopropyl-1-methyl-1H-indol-3-yl)-3-(6-methoxy-5-(4-methyl-1H-imidazol-1-yl)pyridin-2-yl)-5,6-dihydro-4H-1,2,4-oxadiazine] | 59.9
COc1nc(C2=NOCC(c3cn(C4CC4)c4cccc(F)c34)N2)ccc1-n1cnc(C)c1 (single isomer, unassigned; (-)) [Example 222B, (−)-5-(1-cyclopropyl-4-fluoro-1H-indol-3-yl)-3-(6-methoxy-5-(4-methyl-1H-imidazol-1-yl)pyridin-2-yl)-5,6-dihydro-4H-1,2,4-oxadiazine] | 68.6
COc1nc(C2=NOCC(c3cn(C)c4cc(F)c(F)cc34)N2)ccc1-n1cnc(C)c1 (single isomer, unassigned; (-)) [Example 223A, (−)-5-(5,6-difluoro-1-methyl-1H-indol-3-yl)-3-(6-methoxy-5-(4-methyl-1H-imidazol-1-yl)pyridin-2-yl)-5,6-dihydro-4H-1,2,4-oxadiazine] | 130
COc1nc(C2=NOCC(c3ccc4ncccc4c3)N2)ccc1-n1cnc(C)c1 (single isomer, unassigned; (-)) [Example 224A, (−)-3-(6-methoxy-5-(4-methyl-1H-imidazol-1-yl)pyridin-2-yl)-5-(quinolin-6-yl)-5,6-dihydro-4H-1,2,4-oxadiazine] | > 3000
COc1nc(C2=NOCC(c3ccc4c(c3)OC(F)(F)O4)N2)ccc1-n1cnc(C)c1 (single isomer, unassigned; (-)) [Example 225A] | > 3000
COc1nc(C2=NOCC(c3cn(C)c4cc(F)cc(F)c34)N2)ccc1-n1cnc(C)c1 (single isomer, unassigned; (-)) [Example 226B, (−)-5-(4,6-difluoro-1-methyl-1H-indol-3-yl)-3-(6-methoxy-5-(4-methyl-1H-imidazol-1-yl)pyridin-2-yl)-5,6-dihydro-4H-1,2,4-oxadiazine] | 71.4
COc1nc(C2=NOCC(c3ccc(C)cc3)N2)ccc1-n1cnc(C)c1 (single isomer, unassigned; (-)) [Example 227A, (−)-3-(6-methoxy-5-(4-methyl-1H-imidazol-1-yl)pyridin-2-yl)-5-(p-tolyl)-5,6-dihydro-4H-1,2,4-oxadiazine] | 958
COc1nc(C2=NOCC(c3cn(C4CC4)c4cc(F)ccc34)N2)ccc1-n1cnc(C)c1 (single isomer, unassigned; (-)) [Example 228A, (−)-5-(1-cyclopropyl-6-fluoro-1H-indol-3-yl)-3-(6-methoxy-5-(4-methyl-1H-imidazol-1-yl)pyridin-2-yl)-5,6-dihydro-4H-1,2,4-oxadiazine] | 262
COc1nc(C2=NOCC(c3cn(C)c4cccc(Cl)c34)N2)ccc1-n1cnc(C)c1 (single isomer, unassigned; (-)) [Example 229B, (−)-5-(4-chloro-1-methyl-1H-indol-3-yl)-3-(6-methoxy-5-(4-methyl-1H-imidazol-1-yl)pyridin-2-yl)-5,6-dihydro-4H-1,2,4-oxadiazine] | 24.4
COc1nc(C2=NOCC(c3cn(C)c4cccc(C(F)(F)F)c34)N2)ccc1-n1cnc(C)c1 (single isomer, unassigned; (-)) [Example 230B, (−)-3-(6-methoxy-5-(4-methyl-1H-imidazol-1-yl)pyridin-2-yl)-5-(1-methyl-4-(trifluoromethyl)-1H-indol-3-yl)-5,6-dihydro-4H-1,2,4-oxadiazine] | 25.2
